Data on three compounds can be found in the NIST ThermoML archive (doi:10.1016/j.jct.2008.08.013).

± gives the expanded uncertainty stated by the source.

By mass density is commonly meant the mass of a sample divided by its volume.

The conditions of this data set: 101.33 kPa, Liquid, Vibrating tube method.

For the compound `Nc1ccccc1` [aniline], the mass density reads like this: (288.15 K) 1025.93 ± 0.1 kg/m3; (293.15 K) 1021.04 ± 0.09 kg/m3; (298.15 K) 1017.1 ± 0.09 kg/m3; (303.15 K) 1012.84 ± 0.09 kg/m3.

Regarding `ClCCl` [dichloromethane], the mass density (288.15 K) came to 1334.81 ± 0.18 kg/m3, the mass density (293.15 K) worked out at 1325.67 ± 0.18 kg/m3, the mass density (298.15 K) amounted to 1316.58 ± 0.17 kg/m3 and the mass density (303.15 K) is 1307.9 ± 0.17 kg/m3.

Consider `O=[N+]([O-])c1ccccc1` [nitrobenzene], for which the mass density is, setting by setting: (288.15 K) 1211.53 ± 0.13 kg/m3; (293.15 K) 1202.61 ± 0.13 kg/m3; (298.15 K) 1198.01 ± 0.12 kg/m3; (303.15 K) 1193.5 ± 0.12 kg/m3.
